Experiments:
[1] = test system: biological indicators (BIs); test: Heated 90 cm bubbler runs, biological indicators in beakers, Tyvek and process challenge devices; format: cell-based
Method: In this example embodiment of bubbler 430 and system 420, the Bubbler System was modified to accept a 50 mm outside diameter by 90 cm long glass tube (5 mm wall thickness) attached to a 417-liter REVOX system. During all experiments, 250 mL of REVOX PA liquid was measured by graduated cylinder and poured into the 90 cm Bubbler. The Bubbler System was connected to the 417-liter REVOX sterilization chamber referred to as an improved bubbler vessel configuration. Air was drawn into bubbler 430 using only the force of the vacuum within sterilization chamber. A simple on-off valve was used to control the flow of air through the bubbler, allowing for “blocks” to be created in a similar manner to a normal REVOX cycle. In several cases a flow meter and/or infrared vapor detector was used to monitor the output of the Bubbler. In all cases, unused functions of the modified Revox Sterilization chamber/system were turned off (e.g. Dehumidification Hold was always set to 0) or were disabled (e.g. scope flow valve power was physically unplugged).
(§1) An assortment of process challenge devices (PCDs) were procured as a rough gauge to see what modes of sterilization are possible with the current bubbler 430 setup. These devices included simple Tyvek bags containing BIs, a syringe based PCD which contained a BI, a HF2000 Hemofilter cut to allow a BI to be inserted into the fiber mesh, and an artificial bone matrix provided by the REVOX team. Additionally, an Olympus TJF160 duodenoscope was inoculated with 6-log of bacteria on the exterior surface and within the scope lumens and was exposed to a Bubbler cycle with no hookups. This scope was used to assess penetration of sterilant down fine lumens.
(§2) The difference between heated and non-heated bubbler systems is the resulting humidity present in the chamber during the sterilization cycles. The humidity level on Cycle 250, as an example, exceeded 100% relative humidity. Maximum humidity levels were recorded by visual observation. The importance of humidity was again shown in Cycle 251 where humidity levels never exceeded 60% while testing a rapid, multi block cycle. […] Cycle 252 was used to test the effect of a single block run with a longer period of hold. […] Cycle 253 tested the penetration of Bubbler created PAA vapor into the long lumens of an Olympus TJF-160 duodenoscope. The scope surface, elevator wire channel, air/water channel, and suction biopsy channel were each inoculated with 6-logs of Geobacillus stearothermophilus spores. No hookups were used to pass PAA vapor into the lumens.
Cycle 254 tested a single 15-minute contact time on BIs in the chamber and within a Tyvek pouch. With pump down and ventilation, the total run time was 22 minutes. […] Additionally, between 5 and 10 additional minutes could be cut out of the cycle to achieve the same results. This is based on the rate at which the chemical indicators bleach out within the chamber, which tends to happen less than 5 minutes after PAA exposure begins. Within this cycle as well, two different types of Cantel Medical PAA chemical indicators were used. No appreciable difference was observed between the two varieties of CIs. Cycles 255 and 256 provide insight into the utility of the large scale Bubbler technology. […] The results of the Hemofilter can be explained by the complexity of filter membrane and its massive surface area. More “blocks” or injections of PAA vapor are likely needed to saturate the filter membrane with PAA vapor. The bone matrix, however, is readily porous and should be easily sterilized under these conditions. […] It is hypothesized that the metal is causing a breakdown of the PAA vapor as it passes through the bone matrix.

[2] = test system: Geobacillus stearothermophilus; test: Colonoscope sterilization in 60 liter stainless steel chamber; format: cell-based; settings: colonoscope CFQ-160 L, bubbler 4 L/min, circulation approximately 12 L/min, 60 minutes, 6-7 log inoculum
Method: A 60 liter stainless steel chamber was used to determine the effect of chamber size on the efficacy of the bubbler system when the chamber size and material were changed. The flow rate used was 4 L/min for a bubbler and approximately 12 L/min for circulation and the sterilization time was for 60 minutes. Twenty-two inoculated surfaces were studied with the colonoscope (CFQ-160 L). Each scope was inoculated on both the exterior and interior of the lumens with Geobacillus stearothermophilus suspended in serum or saline solution at a target concentration of microorganisms of 6-7 log for each run.

[3] = test system: Geobacillus stearothermophilus spores; test: Heated bubbler Cycle 253, inoculated Olympus TJF-160 duodenoscope without hookups; format: cell-based; settings: Cycle 253: contact time 1200, 3 inj, 6-logs of spores, no hookups
Excerpt: as §1
as §2, with “The scope surface, elevator wire channel, air/water channel, and suction biopsy channel were each inoculated with 6-logs of Geobacillus stearothermophilus spores. No hookups were used to pass PAA vapor into the lumens.” left out

[4] = test system: Geobacillus stearothermophilus; test: Sterilization of inoculated flexible endoscopes with PAA vapor from a one liter glass bubbler; format: cell-based; settings: 6-7 log inoculum, chamber at room temperature
Excerpt: A one liter glass bubbler as the vapor system was used to test three different flexible endoscopes to determine the efficacy of the system against microorganisms as a function of size and architecture of endoscope.
The three endoscope types were chosen to meet the three primary conditions of flexible endoscopes: • Long endoscope: XSIF-100 • Complex channel system scope: CFQ-160L • Basic/small scope: BF-P40 and BF-P30
Each scope was inoculated on both the exterior and interior of the lumens with Geobacillus stearothermophilus suspended in serum or saline solution at a target concentration of microorganisms of 6-7 log for each run. The scope was then sealed inside a double Tyvek bag with a hookup adaptor. Each flexible endoscope was evaluated for a total of 22 inoculated surfaces to achieve a greater than 95% confidence level.
The test conditions for each scope are described below: • For CF-Q160L endoscope: • a. Bubbler flow rate: 4000 mL/min • b. Circulation Flow Rate: 12000 mL/min • c. Contact Time: 60 min
For XSIF-100 endoscope: • a. Bubbler flow rate: […] • b. Circulation Flow Rate: 11000 mL/min • c. Contact Time: 15 min and 30 min
For BF-P40 and BF-P30 endoscopes: • a. Bubbler flow rate: 4000 mL/min • b. Circulation Flow Rate: 11000 mL/min • c. Contact Time: 30 min
The chamber for all the runs was at room temperature.

[5] = test system: Mesa brand biological indicator (BI); test: System 220 bubbler flow through elevator wire channel, biological indicator kill; format: cell-based
Excerpt: In this embodiment, vapor system 220 was substantially modified to allow PAA vapor to flow from the bubbler 231 into an endoscope's elevator wire channel 270. To generate flow, a duodenoscope was placed in a poly tray (no terminal packaging was used) and the elevator wire channel of the endoscope was connected to the flow path. The vacuum chamber 240 was evacuated to 20 torr (±5 torr) so as to create enough pressure differential to flow PAA vapor 232A without any additional mechanical assistance, such as a pump. The flow rate was estimated to be about 150 ml per minute. Potential system leaks were assessed by closing the On/Off valve of the bubbler, isolating the chamber in manual control mode, and holding for 5 minutes. Chamber leak rate was determined to be less than 0.5 torr per five minutes. Depending on the application and the size of the bubbler vessel, PAA flow rate was to be controlled via the needle valve. In this illustrated embodiment, needle valve 252 was in its maximum flow position during all experiments, indicating needle valve 252 was not needed. Flow of PAA vapor to the distal tip of the scope was assured by affixing a PAA chemical indicator (CI) 280. Additional CIs were placed throughout the chamber to monitor for the presence of residual PAA presence, but these were optional and not critical to the operation of system 220. […]

[6] = Evacuation of sterilant after sterilization: PAA in chamber and residuals on scope; settings: after 30 minute ventilation
Excerpt: To evacuate the sterilant out after the sterilization process, the experiment utilized three additional parts to the system: • 1. Circulating fan inside the chamber lid to generate turbulence to promote the evacuation process. • 2. Air pump at the outlet vent to help remove the sterilant out of the system. • 3. Medical air inlet to dilute the concentration of PAA for faster evacuating process.
The process included a flow of medical air in at 15 L/min (flow through both chamber and lumen of scope) and a flow of air out of the chamber (generated by the air pump) and a circulation flow inside the chamber (generated by the fan). The equivalent of flow through the chamber allowed the pressure inside the chamber to be closer to atmospheric pressure to reduce scope damage and allow easier design of the chamber.

[7] = limit that the residual is compared with; cited from earlier work
[8] = Cycle 254: contact time 900 (15-minute), 1 inj, inj 5 torr
[9] = Cycle 255: contact time 1200, 3 inj, inj 5 torr
[10] = Cycle 256: contact time 3600, 2 inj, inj 1 torr

CC(=O)OO [PAA, peracetic acid]
BI Results: BIs in Beakers (negative = kill) ([1]; Cycle 250: contact time 1200, 3 inj, inj 5 torr, post inj 500 torr, humidity exceeded 100%): complete kill | BI Results: BIs in Beakers ([1]; Cycle 251: contact time 60, 20 inj, inj 5 torr, humidity never exceeded 60%): No kill | BI Results: BIs in Beakers ([1]; Cycle 252: contact time 1800, 1 inj, inj 5 torr, humidity exceeded 100%): Kill was achieved | BI Results: BIs in Beakers [1, 8]: sterilized | BI Results: BIs in Tyvek [1, 8]: sterilized | BI Results: BIs in Syringe PCD [1, 9]: able to kill | BI Results: Bone Marrow BI [1, 9]: not able to kill | BI Results: Hemofilter PCD BI [1, 9]: not able to kill | BI Results: Bone Marrow PCD [1, 10]: not able to kill | BI Results: Hemofilter PCD [1, 10]: not able to kill | BI Results: Syringe PCD [1, 10]: able to kill | survivors on 22 inoculated surfaces, scope and biological indicators [2]: no survivors | Scope Exterior [3]: full kill | Scope Lumens [3]: 1 log reduction | Result: survivors on 22 inoculated surfaces ([4]; Bronchoscope BF-P40 and BF-P30, bubbler 4000 mL/min, circulation 11000 mL/min, contact 30 min): All 22 inoculated surfaces have no | Result: survivors on 22 inoculated surfaces ([4]; Colonoscope CFQ-160L, bubbler 4000 mL/min, circulation 12000 mL/min, contact 60 min): All 22 inoculated surfaces have no | Result: survivors on 22 inoculated surfaces ([4]; Enteroscope XSIF-100, bubbler 4000 mL, circulation 11000 mL/min, contact 15 min and 30 min): All 22 inoculated surfaces have no | BI Results ([5]; contact time 600 seconds (Manual 1, Manual 2), chamber 20 torr, BI in vessel along flow path): alive | biological indicators ([5]; scope flow time 30 minutes or greater): dead | residuals on the scope [6]: 30 mg of PAA | worst case residual toxicity [7]: 7050 mg of PAA per total device

Source: patent US20200375691A1, “PERACETIC ACID VAPOR STERILIZATION SYSTEM” (Medivators Inc., priority 2018, published 2020)
